Structures are written as SMILES.

These results are taken from US8772277B2, “Nitrogen-containing heterocyclic compound” (Takeda Pharmaceutical Company Limited, priority 2011, dated 2014).

Test [1] relates to MDA-MB-231-luc cells. Description: Antitumor test using MDA-MB-231-luc cells (subcutaneous transplant). The class given is in vivo, Balb/c nu/nu mice. The conditions noted are these: 50 mg/kg orally twice per day, dosing period 14 days; change in tumor volume, vehicle group = 100%. As for the experimental part:
Experimental Example 3 Antitumor Test using MDA-MB-231-luc Cells
6-Week-old Balb/c nu/nu mice were transplanted subcutaneously with 5×10^6 cells/100 μL, and the mice were grouped according to the body weight and tumor volume after 1 to 2 weeks. Vehicle (0.5% MC) or a compound was administered orally to mice (6 mice per group). The administration was twice per day and performed continuously during the dosing period. Setting the change in tumor volume of the vehicle-treated group as 100%, the change rate in tumor volume of the compound-treated group (□/C %) was calculated.

Test [2] addresses T1, fusion protein containing GAL4-DNA-binding domain and ERR full-length (Homo sapiens, UniProt P11474).
T1 construct: expressed in transfected cells; host or cells: 293T cells
T1 sequence (P11474 1-423): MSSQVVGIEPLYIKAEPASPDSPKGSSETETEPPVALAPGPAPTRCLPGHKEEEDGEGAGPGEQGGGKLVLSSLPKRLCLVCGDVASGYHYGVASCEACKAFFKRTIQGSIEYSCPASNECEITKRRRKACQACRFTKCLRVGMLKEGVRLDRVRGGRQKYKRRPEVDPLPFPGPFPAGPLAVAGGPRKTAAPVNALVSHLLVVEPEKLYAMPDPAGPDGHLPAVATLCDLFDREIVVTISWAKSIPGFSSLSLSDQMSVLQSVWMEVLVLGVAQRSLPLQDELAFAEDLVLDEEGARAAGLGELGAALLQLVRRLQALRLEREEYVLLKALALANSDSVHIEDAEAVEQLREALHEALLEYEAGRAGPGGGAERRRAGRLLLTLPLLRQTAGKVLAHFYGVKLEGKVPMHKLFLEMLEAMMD
Put plainly: Reporter assay system using 293T cells (GAL4-ERR luciferase, inverse agonist activity). The class given is cell-based. The settings on record: HEK-293T, compound final concentration 3 μM, no compound = 0%, 10 μM XCT-790 = 100%, read-out: inhibition rate (%) at 3 μM. As for the experimental part:
Experimental Example 2 Compound Evaluation in Reporter Assay System Using 293T Cells
293T cells derived from human kidney were seeded in a 150 cm^2 flask by 6,000,000 cells, and cultured in a medium (DMEM medium containing 10% inactivated Fetal Bovine Serum sterile filtered (FBS), […] Gentamicin, 10 mM HEPES buffer (pH 7.4)) at 37° C. in the presence of 5% CO2 for 1 day.
Then, vector DNA having a gene encoding a fusion protein, containing GAL4-DNA-binding domain and ERR full-length and a vector DNA wherein luciferase gene is fused at the downstream of GAL4-binding-sequence were cotransfected by a lipofection method, and the cells were cultured at 37° C. in the presence of 5% CO2 for 1 day. The cells were recovered, sown in a 384 well plate by 15,000 cells, and cultured at 37° C. in the presence of 5% CO2 for 3 hrs. Furthermore, 50 μM N-[5-(trifluoromethyl)-1,3,4-thiadiazol-2-yl]-2-cyano-3-[3-methoxy-4-[2,4-di(trifluoromethyl)benzyloxy]phenyl]propenamide (XCT-790) (final concentration 10 μM) or 15 μM compound (final concentration 3 μM) was added, and the cells were cultured at 37° C. in the presence of 5% CO2 for 1 day. The luciferase activity was measured by using multiplate reader Envision (Perkin Elmer Inc.). The inverse agonist activity of the compound was calculated in percentage with the luciferase activity inhibited by no addition of compound as 0%, and with addition of final concentration 10 μM of XCT-790 as 100%.

Test [3] has as its target T2, GST-ERR-α ligand-binding domain (Homo sapiens, UniProt P11474).
T2 sequence (P11474 193-421 limits assumed): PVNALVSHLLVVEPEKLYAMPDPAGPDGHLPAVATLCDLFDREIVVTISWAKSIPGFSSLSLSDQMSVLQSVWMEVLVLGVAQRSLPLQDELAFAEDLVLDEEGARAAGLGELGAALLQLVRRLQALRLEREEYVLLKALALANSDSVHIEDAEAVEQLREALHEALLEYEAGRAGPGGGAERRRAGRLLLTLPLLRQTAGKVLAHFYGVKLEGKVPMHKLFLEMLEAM
Put plainly: HTRF assay system using ERR-α ligand-binding domain (inverse agonist activity, biotinylated SRC-1 (676-700) peptide). The settings on record: compound final concentration 30 μM; 665/620 ratio; no compound = 0%, 10 μM XCT-790 = 100%; read-out: inhibition rate (%) at 30 μM. The class given is biochemical. As for the experimental part:
Experimental Example 1 Compound Evaluation in HTRF Assay System Using ERR-α Ligand-Binding Domain
An assay buffer (25 mM HEPES, 100 mM NaCl, 1 mM DTT, 0.1% BSA) containing 5 nM GST-ERR-α ligand-binding domain (final concentration 1.25 nM) was added to a 384 well plate, then 40 μM N-[5-(trifluoromethyl)-1,3,4-thiadiazol-2-yl]-2-cyano-3-[3-methoxy-4-[2,4-di(trifluoromethyl)benzyloxy]phenyl]propenamide (XCT-790) (final concentration 10 μM), or 120 μM compound (final concentration 30 μM) was added. Furthermore, an assay buffer containing XL665 conjugated Streptavidin, Eu^3+ criptate conjugated GST antibody and 200 nM biotinylated SRC-1 (676-700) (final concentration 100 nM) was added, and the mixture was reacted at room temperature for 2 hr. Using Multiplate reader Envision (Perkin Elmer Inc.), after excitation at 320 nm, fluorescence values at 620 nm and 665 nm were measured. The inverse agonist activity of the compound was calculated in percentage with the 665/620 ratio value inhibited by no addition of compound as 0%, and with addition of final concentration 10 μM of XCT-790 as 100%.

Consider `CN(C)C(=O)CNC1=NC(=O)S/C1=C\C1CCN(Cc2ccc(C(F)(F)F)cc2C(F)(F)F)CC1` [Example 108, N^2-[(5Z)-5-({1-[2,4-bis(trifluoromethyl)benzyl]piperidin-4-yl}methylidene)-2-oxo-2,5-dihydro-1,3-thiazol-4-yl]-N,N-dimethylglycinamide], for which, in test [1], the “T/C (%)” value is 45%. Moreover, the inhibition at 3 µM in test [2] came to 81%. Also, the inhibition at 30 µM in test [3] came out at 89%.
On the same counts, the results for `CN(C)C(=O)[C@@H](CO)NC1=NC(=O)S/C1=C\C1CCN(Cc2ccc(C(F)(F)F)cc2C(F)(F)F)CC1` [Example 115, N^2-[(5Z)-5-({1-[2,4-bis(trifluoromethyl)benzyl]piperidin-4-yl}methylidene)-2-oxo-2,5-dihydro-1,3-thiazol-4-yl]-N,N-dimethyl-D-serinamide] are 55%, 90% and 99%.
